What was measured:
[1] = tested on: H1N1 (influenza A/New Caledonia/20/99); assay: Antiviral effect on A549 cells infected with H1N1; format: cell-based, H1N1 A/New Caledonia/20/99 virus; details: Human A549 cells, MOI of 0.1, 48 h post-infection, MUNANA hydrolysis readout
In short: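 Human A549 cells were treated with a concentration range of compound and immediately infected with H1N1 A/New Caledonia/20/99 at MOI 0.1 in DMEM with 0.25 μg/ml TPCK trypsin, 37° C. At 48 h, supernatant neuraminidase activity was measured on MUNANA (stock 20 μM) for 1 h at 37° C. 4-MU fluorescence was read at ex 365/em 450 nm.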

NFκB = NFκB reporter assay, TNFα stimulation; format: cell-based; details: Homo sapiens; A549 NFκB-NanoLuciferase reporter cells, 4 ng/ml TNFα, 6 hours
Source text: Compounds of the present invention have been tested for their capacity to inhibit NFκB.
The NFκB reporter construct was made by cloning 5 NFκB responsive elements upstream of a NanoLuciferase reporter gene flanked by AAVS1 genomic sequences.
NFκB Responsive element fused with NanoLuciferase and SV40 late Poly(A) signal was amplified from pNL3.2-NFκB-Nluc (Promega) using NFκB-NLUC-F and NFκB-NLUC-R primers and inserted by Infusion (TaKaRa) in AAVS1 SA-2A-puro-pA donor plasmid (Hockemeyer et al, Nat Biotechnol. 2009, 27, 851-7) digested by Sal1. pCRISPR AAVS1-T2 expressing a guide RNA (gRNA) to target human AAVS1 (T2 target sequence) was constructed by inserting AAVS1-T2A hybridized primers in pLentiCRISPR v2-blast (Sanjana et al, Nat Methods. 2014, 11, 783-4) digested by Bsmb1.
A549 cells were transfected by the plasmids and puromycine selected for 5 days (1 μg mL-1). Then clones were obtained by limiting dilution and selected to maximize TNF dependent NFkB-NanoLuciferase induction.
The reporter cells were seeded on a 96-well plate for overnight with DMEM including 10% FBS. Test compounds were added at varying concentrations. The cells then were treated with 4 ng/ml TNFα (Peprotech, ref E251) in DMEM+10% FBS. NanoGlo luciferase assay (Promega) was carried out 6 hours later. Luminescence was measured using a Spark 20M spectrofluorimeter (Tecan). Values were normalized to the luminescence measured in untreated cells.

[2] = biological target: T1, CISD1 Gene Product (mitoNEET) (Homo sapiens, UniProt Q9NZ45); assay: Stability of Fe—S cluster binding of purified NEET protein mitoNEET; format: biochemical
T1 sequence (Q9NZ45 33-108 limits assumed): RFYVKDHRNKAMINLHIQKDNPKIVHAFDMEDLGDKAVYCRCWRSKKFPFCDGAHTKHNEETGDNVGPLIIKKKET
Description: (§1) The modulator effect on the NEET proteins encoded by human CISD1, CISD2, and CISD3 genes by the compounds of the invention has been tested and is reported below. Particularly, the biochemical function of the NEET proteins is measured by the stability of Fe—S cluster binding of the purified NEET proteins.
(§2) The Fe—S cluster binding capacity of NEET proteins is known to be coordinated by four amino-acids in a stretch of 16 (three Cysteine and one Histidine). As the lability of the Fe—S cluster of NEET proteins is sensitive to the environment, cluster stability measurements are one of the measures of interactions of NEET proteins with small molecules and compounds. NEET protein/2Fe-2S cluster stability can be assessed by monitoring the decay in absorbance of its characteristic 458-nm peak (characteristic of the oxidized 2Fe-2S cluster) over time. Each NEET protein (mitoNEET, NAF-1 and Miner 2) was tested for its Fe—S binding in the absence or presence of a compound according to the invention (see table 2 below). The rate of cluster release (time in minutes to achieve 50% loss of bound Fe—S cluster) was compared for each NEET protein in the presence of one of the compounds of the invention (in a 1:3 protein:compound molar ratio) relative to each protein alone.
(§3) At pH 6, all the three NEET proteins (mitoNEET, NAF-1 and Miner 2) have a characteristic rate of loss of the bound Fe—S cluster that can be measured by the decrease of absorbance at wavelength 458 nm over time, using a spectrophotometer. Thus, Bis-Tris buffer (100 mM Bis-Tris pH6, 100 mM Nacl) was used at pH 6 to dilute either DMSO (Blank sample: Bis-Tris Buffer pH 6, 6 μM DMSO), DMSO and one of the three NEET proteins (Control sample: Bis-Tris Buffer pH 6, 6 μM DMSO, 2 μM purified NEET protein) or DMSO, one of the three NEET proteins and a compound of the invention (Test sample: Bis-Tris Buffer pH 6, 6 μM DMSO, […], 6 μM compound of the invention).
(§4) A reaction mix containing DMSO diluted in the Bis-Tris Buffer with or without a compound of the invention was prepared. The purified NEET protein was the last component added to the reaction mix which was then aliquoted into 4 replicates in 96 wells plates. The absorbance at wavelength 458 nm was taken at 5 minutes intervals at 37° C. with a spectrofluorimeter. The assay run time for CISD2 gene product (NAF-1) was 500 minutes and 180 minutes for both the CISD 1 gene product (mitoNEET) and the CISD3 gene product (Miner 2).
(§5) In addition to time monitoring, residual bound Fe—S cluster to NEET protein was measured at the final point of the spectrometry assay for each Test sample and compared to the Control sample data (in parenthesis table 2). This residual binding is measured by the differential percentage between the absorbance 458 nm at time zero and the absorbance 458 nm at the end of the experiment (i.e. respectively 500 or 180 minutes as described hereabove), showing the percentage of NEET protein still able to bind a Fe—S cluster.
(§6) Analysis of the absorbance enables the time for which 50% loss of bound Fe—S cluster is reached (i.e. a 50% absorbance decrease at 458 nm) for each Test sample and each Control sample (in parenthesis table 2) to be determined. The data are then compared to determine whether the compound of the invention stabilizes or destabilizes the NEET protein/Fe—S cluster binding.

[3] = biological target: T2, CISD2 Gene Product (NAF-1) (Homo sapiens, UniProt Q8N5K1); assay: Stability of Fe—S cluster binding of purified NEET protein NAF-1; format: biochemical; details: pH 6, 37° C., 1:3 protein:compound molar ratio
T2 sequence (Q8N5K1 57-135 limits assumed): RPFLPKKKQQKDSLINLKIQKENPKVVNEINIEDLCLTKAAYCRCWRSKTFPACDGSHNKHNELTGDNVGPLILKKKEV
Description: as §1, §2, §3, §4, §5, §6

[4] = biological target: T3, CISD3 Gene Product (Miner2) (Homo sapiens, UniProt P0C7P0); assay: Stability of Fe—S cluster binding of purified NEET protein Miner2; format: biochemical
T3 sequence (P0C7P0 15-127): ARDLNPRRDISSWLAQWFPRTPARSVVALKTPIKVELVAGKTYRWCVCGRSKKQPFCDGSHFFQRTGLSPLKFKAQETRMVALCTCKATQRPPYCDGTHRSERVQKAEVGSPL
Description: as §1, §2, §3, §4, §5, §6

[5] = Influenza A virus, H1N1, A549, 48 h
[6] = time to 50% Fe—S cluster bound loss changed by more than 25% vs Control sample, at the concentrations tested

Compound	IC50 [1, 5] [nM]	EC50 (NFκB) [nM]	Time (in minutes) to achieve 50% loss of bound cluster (Absorbance 458 nm), CISD1 Gene Product (mitoNEET) ([2]; pH 6, 37° C., 1:3 protein:compound molar ratio, 6 μM compound, run time 180 minutes, Vehicle Control 80)	Residual cluster bound at end of experiment (Percentage Absorbance 458 nm at time zero), CISD1 Gene Product (mitoNEET) ([2]; pH 6, 37° C., 1:3 protein:compound molar ratio, end of 180 minutes, Vehicle Control 16%) [%]	stabiliser or destabiliser of Fe—S cluster binding, CISD1 Gene Product (mitoNEET) [2, 6]	Time (in minutes) to achieve 50% loss of bound cluster (Absorbance 458 nm), CISD2 Gene Product (NAF-1) ([3]; 6 μM compound, run time 500 minutes, Vehicle Control 310) [min]	Residual cluster bound at end of experiment (Percentage Absorbance 458 nm at time zero), CISD2 Gene Product (NAF-1) ([3]; end of 500 minutes, Vehicle Control 3%) [%]	Time (in minutes) to achieve 50% loss of bound cluster (Absorbance 458 nm), CISD3 Gene Product (Miner2) ([4]; pH 6, 37° C., 1:3 protein:compound molar ratio, 6 μM compound, run time 180 minutes, Vehicle Control 60)	Residual cluster bound at end of experiment (Percentage Absorbance 458 nm at time zero), CISD3 Gene Product (DMSO 11%) ([4]; pH 6, 37° C., 1:3 protein:compound molar ratio, end of 180 minutes, Vehicle Control 11%) [%]	stabiliser or destabiliser of Fe—S cluster binding, CISD3 Gene Product (Miner2) [4, 6]	IC50 [1] [nM]
COc1ccc(C(=O)Nc2sc3c(c2C(=O)O)CCC(C(C)(C)C)C3)cc1 (centres unmarked) [#1]	54.8	160									
CC(C)(C)C1CCc2c(sc(NC(=O)c3ccc(Cl)cc3)c2C(=O)O)C1 (centres unmarked) [#10]	26	300	during 180 minutes	62	stabilisers	290	42	during 180 minutes	56	Stabilisers	
CC(C)(C)C1CCc2c(sc(NC(=O)c3ccccc3F)c2C(=O)O)C1 (centres unmarked) [#69]		320									120

— patent US11603368B2, “Fused thiophene derivatives and their uses” (ENYO PHARMA, priority 2018, dated 2023)
